From ChEMBL document CHEMBL1201862, “PubChem BioAssay data set” (2004)
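Each compound was tested at five concentrations against cells in 96-well plates for 48 hours. GI50 = concentration required for 50% inhibition of growth.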 The source made the active and inactive calls. No stated cut-off is given here; in the data, active = GI50 up to about 1.1 µM and inactive = higher.

Assays:
Assay in all cases: NCI anticancer screen, dose series, 48 h
SNB-19 = tested on: SNB-19
M14 = tested on: M14
XF498 = tested on: XF498
K562 = tested on: K562
SF-268 = tested on: SF-268
RPMI-8226 = tested on: RPMI-8226
HT-29 = tested on: HT-29
SK-MEL-5 = tested on: SK-MEL-5
HL-60 = tested on: HL-60
COLO 205 = tested on: COLO 205
Hs-578T = tested on: Hs-578T
KM-20L2 = tested on: KM-20L2
CAKI-1 = tested on: CAKI-1
EKVX = tested on: EKVX
Malme-3M = tested on: Malme-3M
T47D = tested on: T47D
SNB-78 = tested on: SNB-78
MDA-MB-231 = tested on: MDA-MB-231
DU-145 = tested on: DU-145
BT-549 = tested on: BT-549
SK-MEL-28 = tested on: SK-MEL-28
DLD-1 = tested on: DLD-1
HCC 2998 = tested on: HCC 2998
DMS-273 = tested on: DMS-273
ACHN = tested on: ACHN
NCI-H226 = tested on: NCI-H226
LOX IMVI = tested on: LOX IMVI
OVCAR-5 = tested on: OVCAR-5
A498 = tested on: A498
UO-31 = tested on: UO-31
SR = tested on: SR
NCI-H522 = tested on: NCI-H522
CCRF-CEM = tested on: CCRF-CEM
U-251 = tested on: U-251
SF-539 = tested on: SF-539
786-0 = tested on: 786-0
SF-295 = tested on: SF-295
HCT-116 = tested on: HCT-116
SNB-75 = tested on: SNB-75
RXF 631 = tested on: RXF 631
M19-MEL = tested on: M19-MEL
HOP-62 = tested on: HOP-62
SK-OV-3 = tested on: SK-OV-3
OVCAR-4 = tested on: OVCAR-4
MDA-MB-435 = tested on: MDA-MB-435
KM12 = tested on: KM12
UACC-62 = tested on: UACC-62
HOP-92 = tested on: HOP-92
LXFL 529 = tested on: LXFL 529
UACC-257 = tested on: UACC-257
MDA-N = tested on: MDA-N
MOLT-4 = tested on: MOLT-4
HCT-15 = tested on: HCT-15
A549 = tested on: A549
IGROV-1 = tested on: IGROV-1
SK-MEL-2 = tested on: SK-MEL-2
NCI-H460 = tested on: NCI-H460
OVCAR-3 = tested on: OVCAR-3
SN12C = tested on: SN12C
PC-3 = tested on: PC-3
OVCAR-8 = tested on: OVCAR-8
TK-10 = tested on: TK-10
NCI-H23 = tested on: NCI-H23
SW-620 = tested on: SW-620
DMS-114 = tested on: DMS-114
RXF 393 = tested on: RXF 393
HOP-18 = tested on: HOP-18

Measured: GI50

CCN(CC)CCNC(=O)c1nn(-c2ccc(Cl)cc2)c2c1CCc1cc(OC)ccc1-2
inactive: SNB-19 10.5 µM | M14 2.38 µM | XF498 5.14 µM | K562 2.77 µM | SF-268 7.19 µM | RPMI-8226 2.9 µM | HT-29 2.64 µM | SK-MEL-5 1.74 µM | HL-60 2.7 µM | COLO 205 2.26 µM | Hs-578T 3.26 µM | KM-20L2 1.64 µM | CAKI-1 8.41 µM | EKVX 10.2 µM | Malme-3M 1.6 µM | T47D 4.3 µM | SNB-78 7.67 µM | MDA-MB-231 12.1 µM | DU-145 15.3 µM | BT-549 17.4 µM | SK-MEL-28 2.03 µM | DLD-1 3.54 µM | HCC 2998 2.34 µM | DMS-273 2.62 µM | ACHN 11.4 µM | NCI-H226 9.38 µM | LOX IMVI 2.03 µM | OVCAR-5 4.75 µM | A498 8.61 µM | UO-31 2.49 µM | SR 4.28 µM | NCI-H522 4.52 µM | CCRF-CEM 5.3 µM | U-251 5.43 µM | SF-539 4.21 µM | 786-0 3.52 µM | SF-295 3.74 µM | HCT-116 3.56 µM | SNB-75 5.21 µM | RXF 631 1.65 µM | M19-MEL 2.7 µM | HOP-62 13.3 µM | SK-OV-3 13.7 µM | OVCAR-4 8.04 µM | MDA-MB-435 9.98 µM | KM12 6.53 µM | UACC-62 2.77 µM | HOP-92 5.51 µM | LXFL 529 4.74 µM | UACC-257 1.82 µM | MDA-N 3.51 µM | MOLT-4 5.75 µM | A549 8.22 µM | IGROV-1 12.8 µM | SK-MEL-2 1.68 µM | NCI-H460 4.51 µM | OVCAR-3 7.24 µM | SN12C 10.4 µM | PC-3 12.6 µM | OVCAR-8 12.3 µM | TK-10 11 µM | NCI-H23 12.8 µM | SW-620 3.26 µM | DMS-114 2.67 µM | RXF 393 3.04 µM | HOP-18 15.2 µM
2.92 µM: HCT-15
